{"source": "ChEMBL document CHEMBL1158315", "about": "“Sclerotiamide: a new member of the paraherquamide class with potent antiinsectan activity from the sclerotia of Aspergillus sclerotiorum” (1996)", "key": {"Helicoverpa zea [1]": {"test_system": "Helicoverpa zea", "assay": "Insecticidal activity against corn ear worm first instar larvae assessed as blackened in dead larvae at 200 ppm administered with standard test diet", "format": "functional, organism-based"}, "Helicoverpa zea [2]": {"test_system": "Helicoverpa zea", "assay": "Insecticidal activity against corn ear worm first instar larvae assessed as mortality at 200 ppm administered with standard test diet", "format": "functional"}, "Helicoverpa zea [3]": {"test_system": "Helicoverpa zea", "assay": "Insecticidal activity against corn ear worm first instar larvae assessed as cuticle/exoskeleton rupture in dead larvae at 200 ppm administered with standard test diet", "format": "functional, organism-based"}, "[4]": {"assay": "Cytotoxicity against human NCI60 cells", "format": "functional"}, "Helicoverpa zea [5]": {"test_system": "Helicoverpa zea", "assay": "Insecticidal activity against corn ear worm first instar larvae assessed as reduction in growth at 200 ppm administered with standard test diet relative to control", "format": "functional", "design": "scale not given: the % may be the effect or the level left"}, "Carpophilus": {"test_system": "Carpophilus", "assay": "Antifeedant activity against Carpophilus hemipterus adult assessed as reduction in feeding rate at 100 ppm", "format": "functional"}, "Helicoverpa zea [6]": {"test_system": "Helicoverpa zea", "assay": "Insecticidal activity against corn ear worm first instar larvae assessed as bloating of area just prior to rear body in surviving larvae at 200 ppm administered with standard test diet", "format": "functional, organism-based"}, "Helicoverpa zea [7]": {"test_system": "Helicoverpa zea", "assay": "Insecticidal activity against corn ear worm first instar larvae assessed as laterally shriveled in dead larvae at 200 ppm administered with standard test diet", "format": "functional, organism-based"}}, "note": "The source made the active and inactive calls. No cut-off for these calls is given here.", "data": [{"smiles": "CC1(C)C=Cc2c(ccc3c2NC(=O)[C@@]32[C@H](O)[C@@]34NC(=O)[C@]5(CCCN5C3=O)C[C@H]4C2(C)C)O1", "note": "[SCLEROTIAMIDE]", "values": [{"measurement": "Activity", "setting": "Helicoverpa zea [1]", "result": "Active"}, {"measurement": "Activity", "setting": "Helicoverpa zea [2]", "result": 46, "unit": "%"}, {"measurement": "Activity", "setting": "Helicoverpa zea [3]", "result": "Active"}, {"measurement": "Activity", "setting": "[4]", "result": 44, "unit": "%"}, {"measurement": "Activity", "setting": "Helicoverpa zea [5]", "result": 98, "unit": "%"}, {"measurement": "GI50", "setting": "Carpophilus", "result": "> 25", "unit": "µg/mL"}, {"measurement": "Activity", "setting": "Helicoverpa zea [6]", "result": "Active"}, {"measurement": "Activity", "setting": "Helicoverpa zea [7]", "result": "Active"}]}]}
